Assays:
[1] = Exposure of powder sample at room temperature to air (hygroscopicity, storage stability); format: physicochemical; settings: for State of powder after exposure to air: exposed to air
From the text: The L-arginine butyrate prepared using ethanol as the sole solvent was a white to off-white powder.
The L-lysine butyrate prepared using ethanol as the sole solvent was a light, pale yellow to yellow powder.

[2] = Study to assess nootropic and related properties after oral administration; format: in vivo, human
Procedure: In another experiment, L-lysine butyrate in a dose range of 500 mg to 5,000 mg was administered as an aqueous solution to six individuals aged between 22 and 55 years, comprising two women and four men. […] The observed effects were dose-dependent, with larger doses of L-lysine butyrate providing greater effects and longer duration, lasting up to four hours.
In another experiment, L-lysine butyrate in a dose of 2 g, and on a separate occasion 5 g, was administered in encapsulated form, to 2 individuals. A further individual was administered L-lysine butyrate in a dose of 2 g in encapsuled form.

[3] = seven (7) days, room temperature

Substance	Hygroscopicity [1]	State of powder after exposure to air ([1]; 24 hours, room temperature)	State of powder after exposure to air [1, 3]	Storage stability of the solid ([1]; room temperature)	State of powder after exposure to air ([1]; thirty (30) days, room temperature)	Time to reported effects after administration ([2]; 500 mg to 5,000 mg as aqueous solution, six individuals)	Effects reported by participants ([2]; 500 mg to 5,000 mg as aqueous solution, six individuals, dose-dependent)	Duration of effects ([2]; 500 mg to 5,000 mg as aqueous solution, larger doses longer duration)	Analgesic effect ([2]; oral administration, 2 g encapsulated, two of the individuals)	Mental effects ([2]; single oral administration of 2 g, encapsulated form)	Mental effects (undesirable) ([2]; single oral administration of 5 g, encapsulated form)	Calming effect in a baby ([2]; small dosage of 25 mg or 50 mg)
L-arginine butyrate [reference compound]	quite hygroscopic	formed hard, rock-like clumps	significantly hydrated into, large solid masses	–	–	–	–	–	–	–	–	–
L-lysine butyrate	not hygroscopic	remained a fine, free-flowing yellow powder	remained a fine, free-flowing powder with no color change	stable to storage at room temperature	remained a fine, free-flowing powder	thirty	more relaxed, less tired, more sociable, and able to concentrate on tasks more effectively	up to four	eliminating minor-to-moderate pain and discomfort	pleasant mental effects	undesirable mental effects	effective to calm a baby

— patent US12226383B1, “Compositions containing short-chain fatty acid, methods of use, and methods of making thereof” (Velocity Life Sciences, LLC, priority 2024, dated 2025)
